# Experimental data from patent publication US12612407B2, “Imidazo[2,1-f][1,2,4]triazin-4-amine derivatives as TLR7 agonist” (BEIGENE, LTD., priority 2020, dated 2026).
# Target: T1, human TLR7 (Homo sapiens, UniProt Q9NYK1)
# T1 construct: host or cells: HEK293 (HEK-Blue hTLR7)
# T1 sequence (Q9NYK1 27-1049): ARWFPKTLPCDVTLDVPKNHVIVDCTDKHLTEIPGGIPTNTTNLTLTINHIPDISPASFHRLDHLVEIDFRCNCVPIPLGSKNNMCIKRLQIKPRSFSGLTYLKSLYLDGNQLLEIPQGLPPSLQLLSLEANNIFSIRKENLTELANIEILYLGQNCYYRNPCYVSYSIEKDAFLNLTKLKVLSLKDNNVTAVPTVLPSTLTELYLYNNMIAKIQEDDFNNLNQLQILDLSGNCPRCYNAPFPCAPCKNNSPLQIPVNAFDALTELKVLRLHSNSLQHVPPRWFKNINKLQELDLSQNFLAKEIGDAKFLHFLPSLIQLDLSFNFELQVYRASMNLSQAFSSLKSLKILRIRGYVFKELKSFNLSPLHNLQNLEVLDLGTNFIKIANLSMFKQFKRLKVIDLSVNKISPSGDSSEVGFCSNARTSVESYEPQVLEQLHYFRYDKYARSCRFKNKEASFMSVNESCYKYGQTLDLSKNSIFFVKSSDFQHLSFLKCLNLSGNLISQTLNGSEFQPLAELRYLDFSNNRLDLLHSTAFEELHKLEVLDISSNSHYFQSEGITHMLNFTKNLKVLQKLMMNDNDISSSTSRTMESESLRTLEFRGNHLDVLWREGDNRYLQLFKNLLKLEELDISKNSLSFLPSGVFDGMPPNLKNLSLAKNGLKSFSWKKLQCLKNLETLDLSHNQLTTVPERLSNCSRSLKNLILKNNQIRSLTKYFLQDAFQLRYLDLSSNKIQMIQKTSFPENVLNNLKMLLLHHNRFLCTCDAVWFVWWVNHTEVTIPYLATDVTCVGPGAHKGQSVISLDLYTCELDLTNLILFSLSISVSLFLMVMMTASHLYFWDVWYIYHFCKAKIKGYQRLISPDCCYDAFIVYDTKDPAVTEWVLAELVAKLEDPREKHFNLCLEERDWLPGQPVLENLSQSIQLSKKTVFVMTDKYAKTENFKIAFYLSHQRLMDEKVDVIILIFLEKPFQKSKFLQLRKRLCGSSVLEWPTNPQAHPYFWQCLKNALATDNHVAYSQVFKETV
# Experiment: HEK293-Blue hTLR7 Reporter Assay (QUANTI-BLUE, SEAP readout)
# Type: cell-based
# Details: HEK-Blue-hTLR7 cells, 24 hrs treatment, Table 1, B1-B232
# Method in brief: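 HEK-Blue-hTLR7 cells expressing NF-κB/AP-1-driven SEAP, 4×10^4 cells/well, treated 24 h at 37° C with increasing compound concentrations. Supernatant SEAP measured with Quanti-blue substrate (10-30 min, 37° C) at 620-655 nm; EC50 from sigmoidal dose-response fit.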
row,Molecule,EC50
1,"CCCC(C)Oc1nc(N)c2ncc(Cc3cnc(N4CCC(CNC)CC4)c(C)c3)n2n1 (stereo not drawn) [Compound B205, 7-((5-methyl-6-(4-((methylamino)methyl)piperidin-1-yl)pyridin-3-yl)methyl)-2-(pentan-2-yloxy)imidazo[2,1-f][1,2,4]triazin-4-amine]",6.5 nM
2,"CCC(CC)Nc1nc(N)c2ncc(Cc3cnc(N4CCN(C(=O)CN(C)C)CC4)c(C)c3)n2n1 [Compound B211, 1-(4-(5-((4-amino-2-(pentan-3-ylamino)imidazo[2,1-f][1,2,4]triazin-7-yl)methyl)-3-methylpyridin-2-yl)piperazin-1-yl)-2-(dimethylamino)ethan-1-one]",7.7 nM
3,"CCC[C@H](C)Oc1nc(N)c2ncc(Cc3cnc(N4CCN(C(=O)CNCC(C)C)CC4)c(C)c3)n2n1 [Compound B212, (S)-1-(4-(5-((4-amino-2-(pentan-2-yloxy)imidazo[2,1-f][1,2,4]triazin-7-yl)methyl)-3-methylpyridin-2-yl)piperazin-1-yl)-2-(isobutylamino)ethan-1-one]",6.2 nM
4,"CCC[C@H](C)Oc1nc(N)c2ncc(Cc3cnc(N4CCC(NCC(C)C)CC4)c(C)c3)n2n1 [Compound B215, (S)-7-((6-(4-(isobutylamino)piperidin-1-yl)-5-methylpyridin-3-yl)methyl)-2-(pentan-2-yloxy)imidazo[2,1-f][1,2,4]triazin-4-amine]",4.2 nM
5,"CC[C@@H](CCO)Oc1nc(N)c2ncc(Cc3cnc(N4CCNCC4)c(C)c3)n2n1 [Compound B216, (S)-3-((4-amino-7-((5-methyl-6-(piperazin-1-yl)pyridin-3-yl)methyl)imidazo[2,1-f][1,2,4]triazin-2-yl)oxy)pentan-1-ol]",1080 nM
6,"CCCC(CCC)Nc1nc(N)c2ncc(Cc3cnc(N4CCC(CNC)CC4)c(C)c3)n2n1 [Compound B220, N2-(heptan-4-yl)-7-((5-methyl-6-(4-((methylamino)methyl)piperidin-1-yl)pyridin-3-yl)methyl)imidazo[2,1-f][1,2,4]triazine-2,4-diamine]",3.6 nM
7,"CCCC(CC)Nc1nc(N)c2ncc(Cc3cnc(N4CCNCC4)c(C)c3)n2n1 (stereo not drawn) [Compound B223, N2-(hexan-3-yl)-7-((5-methyl-6-(piperazin-1-yl)pyridin-3-yl)methyl)imidazo[2,1-f][1,2,4]triazine-2,4-diamine]",6 nM
8,"CCCC(Nc1nc(N)c2ncc(Cc3cnc(N4CCNCC4)c(C)c3)n2n1)C(F)(F)F (stereo not drawn) [Compound B227, 7-((5-methyl-6-(piperazin-1-yl)pyridin-3-yl)methyl)-N2-(1,1,1-trifluoropentan-2-yl)imidazo[2,1-f][1,2,4]triazine-2,4-diamine]",25 nM
9,"CCCC(CCO)Oc1nc(N)c2ncc(Cc3cnc(N4CCC(CNC)CC4)c(C)c3)n2n1 (stereo not drawn) [Compound B229, 3-((4-amino-7-((5-methyl-6-(4-((methylamino)methyl)piperidin-1-yl)pyridin-3-yl)methyl)imidazo[2,1-f][1,2,4]triazin-2-yl)oxy)hexan-1-ol]",14 nM
10,"CCCC(CO)Nc1nc(N)c2ncc(Cc3cnc(N4CCC(CNC)CC4)c(C)c3)n2n1 (stereo not drawn) [Compound B232, 2-((4-amino-7-((5-methyl-6-(4-((methylamino)methyl)piperidin-1-yl)pyridin-3-yl)methyl)imidazo[2,1-f][1,2,4]triazin-2-yl)amino)pentan-1-ol]",31 nM
11,"N2-methyl-7-((5-methyl-6-(piperazin-1-yl)pyridin-3-yl)methyl)-N2-propylimidazo[2,1-f][1,2,4]triazine-2,4-diamine [Compound B84]",1000 nM

# More lines, now with the values ahead:
row,EC50,Molecule
1,5610 nM,"CNCC(C)Oc1nc(N)c2ncc(Cc3cnc(N4CCNCC4)c(C)c3)n2n1 (stereo not drawn) [Compound B206, 7-((5-methyl-6-(piperazin-1-yl)pyridin-3-yl)methyl)-2-((1-(methylamino)propan-2-yl)oxy)imidazo[2,1-f][1,2,4]triazin-4-amine]"
2,7.4 nM,"CCC(CC)Nc1nc(N)c2ncc(Cc3cnc(N4CCC(CN(C)C)CC4)c(C)c3)n2n1 [Compound B208, 7-((6-(4-((dimethylamino)methyl)piperidin-1-yl)-5-methylpyridin-3-yl)methyl)-N2-(pentan-3-yl)imidazo[2,1-f][1,2,4]triazine-2,4-diamine]"
3,9.2 nM,"CCC(CC)Nc1nc(N)c2ncc(Cc3cnc(N4CCC(N(C)C)CC4)c(C)c3)n2n1 [Compound B209, 7-((6-(4-(dimethylamino)piperidin-1-yl)-5-methylpyridin-3-yl)methyl)-N2-(pentan-3-yl)imidazo[2,1-f][1,2,4]triazine-2,4-diamine]"
4,12 nM,"CCC(CC)Nc1nc(N)c2ncc(Cc3cnc(N4CCNCC4)c(C)c3)n2n1 [Compound B210, 7-((5-methyl-6-(piperazin-1-yl)pyridin-3-yl)methyl)-N2-(pentan-3-yl)imidazo[2,1-f][1,2,4]triazine-2,4-diamine]"
5,2440 nM,"CC[C@H](O)CCOc1nc(N)c2ncc(Cc3cnc(N4CCNCC4)c(C)c3)n2n1 [Compound B217, (S)-1-((4-amino-7-((5-methyl-6-(piperazin-1-yl)pyridin-3-yl)methyl)imidazo[2,1-f][1,2,4]triazin-2-yl)oxy)pentan-3-ol]"
6,46 nM,"CCCC(CCO)Oc1nc(N)c2ncc(Cc3cnc(N4CCN(C(=O)CNC)CC4)c(C)c3)n2n1 (stereo not drawn) [Compound B218, 1-(4-(5-((4-amino-2-((1-hydroxyhexan-3-yl)oxy)imidazo[2,1-f][1,2,4]triazin-7-yl)methyl)-3-methylpyridin-2-yl)piperazin-1-yl)-2-(methylamino)ethan-1-one]"
7,46 nM,"CCC[C@@H](CCO)Nc1nc(N)c2ncc(Cc3cnc(N4CCNCC4)c(C)c3)n2n1 [Compound B226, (S)-3-((4-amino-7-((5-methyl-6-(piperazin-1-yl)pyridin-3-yl)methyl)imidazo[2,1-f][1,2,4]triazin-2-yl)amino)hexan-1-ol]"
8,37 nM,"CCC[C@@H](CCO)Nc1nc(N)c2ncc(Cc3cnc(N4CCC(CNC)CC4)c(C)c3)n2n1 [Compound B228, (S)-3-((4-amino-7-((5-methyl-6-(4-((methylamino)methyl)piperidin-1-yl)pyridin-3-yl)methyl)imidazo[2,1-f][1,2,4]triazin-2-yl)amino)hexan-1-ol]"
9,4.8 nM,"CCC[C@H](CC)Oc1nc(N)c2ncc(Cc3cnc(N4CCN(C(=O)CNC)CC4)c(C)c3)n2n1 [Compound B230, (S)-1-(4-(5-((4-amino-2-(hexan-3-yloxy)imidazo[2,1-f][1,2,4]triazin-7-yl)methyl)-3-methylpyridin-2-yl)piperazin-1-yl)-2-(methylamino)ethan-1-one]"
10,4.1 nM,"CCC[C@H](C)Nc1nc(N)c2ncc(Cc3cnc(N4CCN(C(=O)CNC)CC4)c(C)c3)n2n1 [Compound B231, (S)-1-(4-(5-((4-amino-2-(pentan-2-ylamino)imidazo[2,1-f][1,2,4]triazin-7-yl)methyl)-3-methylpyridin-2-yl)piperazin-1-yl)-2-(methylamino)ethan-1-one]"
